SMILES strings stand for the structures. Like-named read-outs stand apart in the source and are kept apart here.

The test system of series [1] is rat BMSCs (rBMSCs). As to the kind of experiment: BrdU proliferation assay in rBMSCs. In kind it is cell-based. Conditions: 1 nM. On the procedure:
(§1) Rat and mouse bone marrow stromal cells (BMSCs) were seeded at a density of 4000 cells/well in a 96-well plate for cell proliferation and treated with 1 nM of MTZ for 48 h in a growth medium (α-MEM containing 10% FBS). Following the MTZ treatment, the cells were incubated for 4 h with bromodeoxyuridine (BrdU) before termination. Cell proliferation was assessed at 450 nm using the Roche Diagnostics BrdU ELISA kit, in accordance with the manufacturer’s protocol, using a reference wavelength of 690 nm.

The subject of series [2] is serum P1NP and CTX-I of OVX rats. The experiment in a line: OVX osteopenia model, serum bone turnover markers (ELISA). In kind it is in vivo, SD rats. Conditions: 235 mg/kg oral, 3 months. On the procedure:
The 10-month-old (265 ± 20 g) SD rats were ovariectomized (OVX) bilaterally and left for 3 months to develop osteopenia. Ovary-intact sham-operated animals were used as a control. A live animal micro-CT was performed to confirm osteopenia, followed by dividing the animals into 3 groups: Sham + vehicle (water, oral), OVX + vehicle (water, oral), and OVX + MTZ (235 mg/kg, oral). Each group had 9 rats, and treatment were administered for 3 months. Calcein (20 mg/kg, s.c.) was injected twice before sacrificing at 10-day intervals. The levels of serum procollagen type I N-terminal peptide (P1NP) and serum cross-linked C-telopeptide of type I collagen (CTX-I) were assessed using ELISA (MyBioSource, San Diego, CA, USA), in accordance with the manufacturer’s protocol.

The subject of series [3] is trabecular bone of OVX osteopenic rats. The experiment in a line: OVX osteopenia model, micro-CT of trabecular bone. It counts as in vivo, SD rats. Conditions: 235 mg/kg oral, 3 months. On the procedure:
The 10-month-old (265 ± 20 g) SD rats were ovariectomized (OVX) bilaterally and left for 3 months to develop osteopenia. Ovary-intact sham-operated animals were used as a control. A live animal micro-CT was performed to confirm osteopenia, followed by dividing the animals into 3 groups: Sham + vehicle (water, oral), OVX + vehicle (water, oral), and OVX + MTZ (235 mg/kg, oral). Each group had 9 rats, and treatment were administered for 3 months. Calcein (20 mg/kg, s.c.) was injected twice before sacrificing at 10-day intervals. A SkyScan 1076 μCT scanner (SkyScan, Ltd., Kartuizersweg, Kontich, Belgium) was used to perform a high-resolution μCT for the two-dimensional and three-dimensional assessment of excised bones. The rat bone scanning process used an isotropic voxel pixel size of 18 μm and an X-ray source of 70 kV and […]. Utilizing the SkyScan Nrecon software (Version: 1.7.0.4), cross-sectional reconstruction was performed. In order to examine the trabecular region of the femur and tibia, 100 slices were used to draw the region of interest (ROI), which was limited to the secondary spongiosa region 1.5 mm from the growth plate’s distal border. The primary spongiosa and cortical bone were not included in the ROI. A ROI was drawn on 70 slices of the mid-vertebral region for the L5 vertebral study. The Batman software (Version: 1.16.8.0+), with trabecular (3D) bone analysis programs was used for quantification.

Series [4] deals with mouse BMSCs (mBMSCs). The experiment in a line: BrdU proliferation assay in mBMSCs. It counts as cell-based. Conditions: 1 nM. On the procedure:
as §1

Series [5] has as its system β-catenin nuclear translocation in osteoblasts (RCO). As to the kind of experiment: Immunofluorescence of β-catenin nuclear translocation in RCO. In kind it is cell-based, rat. Conditions: 10 nM. On the procedure: RCOs were grown on Lab-Tek Chamber Slides (Nunc, Penfield, NY, USA) to 40–50% confluence for 24 h. After treatment with MTZ at different time points, cells were fixed with 4% formaldehyde, followed by permeabilization with 0.1% Triton™ X-100 for 15 min, blocked with 2% goat serum for 2 h, and labeled with primary antibody against β-catenin (Cell Signaling Technology, Danvers, MA, USA, catalog number 9562S) (1:100) overnight at 4 °C in a moist chamber. Alexa Fluor® 594 (Abcam, Cambridge, UK, catalog number ab150080) was used as a secondary antibody (1:200 dilution) for 2 h at room temperature. […]

Series [6] can be described thus: Pharmacokinetic study, s.c., plasma LC-MS/MS. Conditions: rats, 40 mg/rat s.c. In kind it is in vivo. On the procedure:
Mass spectrometric detections were carried out using an AB Sciex 4000 QTRAP LC-MS/MS, Redwood City, CA, USA) instrument fitted with an electrospray ionization source. Separation was conducted through X Bridge^TM Shield RP 18 (Waters, MA, USA) (5 µm, 4.6 × 50 mm) column. […] The ion spray voltage was set at 4500 V. […] The MS was operated in the ESI positive-ion mode, and the detection of the ions was performed in the multiple reaction monitoring (MRM) mode, monitoring the transition of m/z 172.06 precursor ion [M + H]+ to the m/z 128.08 product ion for IS and m/z 236.95 precursor ion [M + H]+ to the m/z 194.04 product ion for compound, respectively. After overnight fasting, the animals were divided into two groups (n = 4) based on the treatment: […] An MTZ suspension was prepared in water. Blood samples were collected at predetermined time points (0.25 to 48 h). […] To extract MTZ from plasma samples, the protein precipitation method was used. In this method, plasma samples (50 μL) were taken (50 ng/mL of carbamazepine (CBZ) as the internal standard) and vortexed at 2000 rpm for 10 min. Subsequently, the samples were centrifuged at 10,000 rpm for 10 min. The supernatant (100 µL) was taken for LC-MS/MS analysis. Data acquisition and quantitation were performed using analyst software. The PK parameters were determined using the Phoenix™ 6.3 WinNonlin (Pharsight Corporation, Mountain View, CA, USA) software as a noncompartmental model approach.

The subject of series [7] is rat BMSCs (rBMSCs). As to the kind of experiment: ALP activity in rat bone marrow stromal cells. Conditions: 1 nM, seven days post-treatment. In kind it is cell-based.
[8] abbreviates: femur and tibia metaphyses, OVX rats.
Setting [9] is: proximal femur and tibia metaphyses, OVX rats.

For `Cc1ncc([N+](=O)[O-])n1CCO` [Metronidazole], the “Proliferation (BrdU incorporation)” value in series [1] was “did not affect”. Moreover, in series [2], the “Serum bone formation marker P1NP levels” value is reported as “restored” and the “Serum resorption marker CTX-1” value is “failed to reduce it”. In series [3] (L5, OVX rats), the “Trabecular bone parameters at vertebra (L5)” value was “failed to restore”. Also, in series [3] (setting [8]), the “Trabecular number (Tb.N)” value is on record as “significant enhancement”, the “Trabecular spacing (Tb.sp)” value is reported as “restored trabecular spacing (Tb.sp) to sham levels” and the “Trabecular thickness (Tb.Th)” value is recorded as “complete restoration”. Besides, in series [3] (setting [9]), the BMD result was “significantly increased” and the “Bone volume (BV/TV)” value is given as “significantly increased”. Besides, the “Proliferation (BrdU incorporation)” value in series [4] is listed as “did not affect”. Moreover, in series [5], the β-catenin nuclear translocation entry is “induced”. Besides, the MRT in series [6] (plasma, sc) was 7.63 ± 0.3 h. For the same molecule, the AUC in series [6] (plasma, sc, read-out: Area under the curve (AUC)0–last) amounted to 206 ± 7.05 µg·h/mL. The Cmax in series [6] (plasma, sc, read-out: Maximum concentration (Cmax)) was 23000 ± 870 ng/mL. Besides, in series [6], the Cl came to 13 ± 0.5 mL/min/kg and the Vd came out at 4.91 ± 0.15 L/kg. Further, in series [6] (sc, plasma), the total exposure AUC(0-inf) was determined as 206 ± 7.05 µg·h/mL, the time to peak (Tmax) amounted to 1.75 ± 0.25 h and the half-life is 4.39 ± 0.26 h. In series [6] (sc, plasma, read-out: Cmax), the Cmax was determined as 23000 ± 870 ng/mL. Also, the “ALP activity compared to the vehicle group” value in series [7] was “increased”.

(Values after article PMC11274654 (Biomedicines, 2024).)
